Data published in patent publication US20230210825A1, “METHODS AND COMPOSITIONS FOR TREATING SUBJECTS WITH METABOLIC DISORDERS AND CORONAVIRUS INFECTIONS” (CIRIUS THERAPEUTICS, INC., priority 2020, published 2023).

Key:
CYP2C8 = CYP2C8 (Homo sapiens, UniProt P10632)
PPARγ = molecular target: T1, PPARγ (Homo sapiens, UniProt P37231); experiment: Relative binding affinity for PPARγ (FIG. 1); details: FIG. 1, relative binding affinity
T1 sequence (P37231 1-505): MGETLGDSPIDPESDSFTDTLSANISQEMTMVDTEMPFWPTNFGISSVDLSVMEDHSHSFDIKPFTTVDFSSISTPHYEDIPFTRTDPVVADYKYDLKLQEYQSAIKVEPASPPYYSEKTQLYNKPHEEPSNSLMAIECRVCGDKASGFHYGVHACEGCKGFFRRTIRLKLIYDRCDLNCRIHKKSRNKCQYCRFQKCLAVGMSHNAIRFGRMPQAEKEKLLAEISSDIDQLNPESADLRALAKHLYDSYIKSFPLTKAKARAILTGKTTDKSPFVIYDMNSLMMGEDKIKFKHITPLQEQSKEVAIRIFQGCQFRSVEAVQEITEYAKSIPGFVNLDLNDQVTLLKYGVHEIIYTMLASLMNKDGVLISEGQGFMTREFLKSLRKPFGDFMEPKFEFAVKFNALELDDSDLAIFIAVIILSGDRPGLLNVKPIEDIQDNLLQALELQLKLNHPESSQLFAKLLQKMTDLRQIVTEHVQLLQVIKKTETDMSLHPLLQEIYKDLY

[1] = metabolite share of combined exposure after MSDC-0602
[2] = molecular target: T2, organic anion transporter 3 (OAT3) (Homo sapiens, UniProt Q8TCC7); experiment: OAT3 inhibition
T2 sequence (Q8TCC7 1-542): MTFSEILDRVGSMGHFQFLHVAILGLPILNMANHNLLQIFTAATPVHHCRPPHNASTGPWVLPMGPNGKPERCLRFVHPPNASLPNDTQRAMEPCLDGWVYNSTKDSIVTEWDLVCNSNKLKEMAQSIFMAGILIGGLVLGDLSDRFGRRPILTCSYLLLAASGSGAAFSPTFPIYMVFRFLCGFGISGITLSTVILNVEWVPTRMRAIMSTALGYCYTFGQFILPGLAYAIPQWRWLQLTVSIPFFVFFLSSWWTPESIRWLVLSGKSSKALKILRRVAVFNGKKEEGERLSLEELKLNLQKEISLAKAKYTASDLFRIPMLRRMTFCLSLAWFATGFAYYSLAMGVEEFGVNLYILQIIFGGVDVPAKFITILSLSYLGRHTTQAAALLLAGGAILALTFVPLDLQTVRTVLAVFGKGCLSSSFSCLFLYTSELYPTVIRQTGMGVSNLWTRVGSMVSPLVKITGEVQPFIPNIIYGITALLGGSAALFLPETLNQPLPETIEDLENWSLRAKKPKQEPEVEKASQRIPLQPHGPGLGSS

[3] = molecular target: T3, mitochondrial pyruvate carrier (MPC) (Homo sapiens, UniProt O95563+Q9Y5U8); experiment: Relative binding affinity for the MPC (FIG. 2)
T3 sequence (Q9Y5U8 1-109): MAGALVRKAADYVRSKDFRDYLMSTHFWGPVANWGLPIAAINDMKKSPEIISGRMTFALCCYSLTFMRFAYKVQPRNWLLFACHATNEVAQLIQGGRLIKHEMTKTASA
T3 sequence (O95563 1-127): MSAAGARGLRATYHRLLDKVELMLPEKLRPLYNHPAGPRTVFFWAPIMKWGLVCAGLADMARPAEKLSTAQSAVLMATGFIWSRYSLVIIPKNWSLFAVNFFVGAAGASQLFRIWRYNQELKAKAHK

[4] = molecular target: multidrug resistance protein 1 (MDR1) (Homo sapiens, UniProt P08183); experiment: MDR1 inhibition
[5] = system: mouse model of a metabolic disorder; details: reported earlier; effects require MPC expression in hepatocytes; cited from earlier work
[6] = molecular target: T4, breast cancer-related protein (BCRP) (Homo sapiens, UniProt Q9UNQ0); experiment: BCRP inhibition; details: not told
T4 sequence (Q9UNQ0 1-655): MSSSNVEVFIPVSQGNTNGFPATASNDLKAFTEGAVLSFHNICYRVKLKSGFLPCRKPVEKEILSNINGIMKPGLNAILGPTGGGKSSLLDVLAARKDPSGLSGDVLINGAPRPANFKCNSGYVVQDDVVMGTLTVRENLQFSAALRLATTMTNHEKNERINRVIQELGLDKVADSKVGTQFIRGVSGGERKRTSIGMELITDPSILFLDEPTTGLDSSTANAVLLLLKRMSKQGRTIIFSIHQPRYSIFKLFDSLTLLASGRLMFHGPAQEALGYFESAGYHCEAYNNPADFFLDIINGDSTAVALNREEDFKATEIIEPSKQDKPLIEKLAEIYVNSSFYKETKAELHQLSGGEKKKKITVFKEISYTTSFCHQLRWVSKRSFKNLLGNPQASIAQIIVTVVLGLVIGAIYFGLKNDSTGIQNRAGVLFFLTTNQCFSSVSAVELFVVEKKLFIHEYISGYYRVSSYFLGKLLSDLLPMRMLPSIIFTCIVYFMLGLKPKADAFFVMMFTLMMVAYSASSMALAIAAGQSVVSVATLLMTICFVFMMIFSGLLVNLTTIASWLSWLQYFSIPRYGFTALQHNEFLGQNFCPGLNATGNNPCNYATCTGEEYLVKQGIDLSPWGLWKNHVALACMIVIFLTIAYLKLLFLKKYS

[7] = Earlier phase 2 trials: adiponectin at 28 days; parameters: species or system human; details: in vivo

Chain of CYP2C8 (P10632 whole entry): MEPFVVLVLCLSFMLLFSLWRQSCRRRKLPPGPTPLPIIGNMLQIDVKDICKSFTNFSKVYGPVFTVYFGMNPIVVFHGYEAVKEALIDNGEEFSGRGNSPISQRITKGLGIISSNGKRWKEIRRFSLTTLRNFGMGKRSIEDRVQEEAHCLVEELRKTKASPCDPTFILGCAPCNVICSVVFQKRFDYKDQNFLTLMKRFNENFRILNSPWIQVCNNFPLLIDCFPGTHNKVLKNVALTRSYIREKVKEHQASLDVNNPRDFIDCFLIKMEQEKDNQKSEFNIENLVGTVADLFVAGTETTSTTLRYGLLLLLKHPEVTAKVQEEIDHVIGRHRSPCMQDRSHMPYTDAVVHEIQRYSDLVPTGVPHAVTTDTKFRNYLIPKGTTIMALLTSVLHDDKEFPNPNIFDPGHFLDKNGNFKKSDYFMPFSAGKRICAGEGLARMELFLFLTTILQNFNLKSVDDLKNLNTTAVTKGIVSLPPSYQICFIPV

In the case of `COc1cccc(C(O)COc2ccc(CC3SC(=O)NC3=O)cc2)c1` (centres unmarked) [MSDC-0597], the “inhibition of CYP2C8” value (CYP2C8) is reported as “weak inhibitor”, the “reduction in binding affinity for PPARγ compared to pioglitazone” value (PPARγ) is reported as “more than fifty-fold” and the “share of the combined exposure” value [1] is reported as “more than 90%”. The “inhibition of organic anion transporter 3 (OAT3)” value [2] was “inhibitors” and the “binding to the MPC” value [3] was “maintain, and in some cases improve, binding to the MPC”.

In the case of `COc1cccc(C(=O)COc2ccc(CC3SC(=O)NC3=O)cc2)c1` (centres unmarked) [MSDC-0602], the “inhibition of MDR1” value [4] is listed as “inhibitor”, the “damage caused to the liver” value [5] is listed as “prevents and reverses damage caused to the liver” and the “inhibition of organic anion transporter 3 (OAT3)” value [2] is listed as “inhibitors”. For the same molecule, the “inhibition of BCRP” value [6] was “inhibitor”, the “binding to the MPC” value [3] was “maintain, and in some cases improve, binding to the MPC” and the “increase in adiponectin levels” value [7] was 146%.
